Assay results from ChEMBL document CHEMBL3525955, “Glucuronidation of the red clover isoflavone irilone by liver microsomes from different species and human UDP-glucuronosyltransferases” (Drug Metab Dispos, 2011).

Key:
[1] = Drug metabolism in pig liver microsomes assessed as substrate inhibition of IRI-O-4'-monoglucuronide formation incubated for 5 mins prior to UDPGA addition measured after 90 mins by Eadie-Hoftsee plot analysis; type: ADME, Sus scrofa
[2] = target: T1, UDP-glucuronosyltransferase 2B15 (Homo sapiens, UniProt P54855); assay: Drug metabolism assessed as human recombinant UGT2B15-mediated glucuronidation incubated for 5 mins prior to UDPGA addition measured after 90 mins by HPLC-DAD analysis; type: ADME; details: recombinant enzyme, 1.5 h
T1 sequence (P54855 whole entry): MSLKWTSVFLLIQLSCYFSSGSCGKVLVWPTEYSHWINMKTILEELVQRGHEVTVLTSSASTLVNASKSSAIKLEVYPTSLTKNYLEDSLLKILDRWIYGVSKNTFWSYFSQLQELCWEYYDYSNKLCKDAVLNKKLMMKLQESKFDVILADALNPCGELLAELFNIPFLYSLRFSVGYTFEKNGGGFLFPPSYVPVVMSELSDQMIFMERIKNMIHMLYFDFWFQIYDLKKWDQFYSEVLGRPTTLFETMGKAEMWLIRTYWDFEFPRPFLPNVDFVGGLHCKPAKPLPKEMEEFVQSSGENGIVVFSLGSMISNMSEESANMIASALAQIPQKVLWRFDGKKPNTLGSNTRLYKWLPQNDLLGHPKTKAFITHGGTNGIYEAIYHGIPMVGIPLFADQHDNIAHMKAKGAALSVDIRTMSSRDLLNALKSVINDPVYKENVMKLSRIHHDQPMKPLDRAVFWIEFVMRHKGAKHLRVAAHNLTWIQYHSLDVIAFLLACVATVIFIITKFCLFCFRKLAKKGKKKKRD

[3] = target: T2, UDP-glucuronosyltransferase 1A8 (Homo sapiens, UniProt Q9HAW9); assay: Activity of human recombinant UGT1A8 assessed as intrinsic clearance incubated for 5 mins prior to UDPGA addition measured after 90 mins; type: ADME; details: recombinant enzyme, 1.5 h
T2 sequence (Q9HAW9 whole entry): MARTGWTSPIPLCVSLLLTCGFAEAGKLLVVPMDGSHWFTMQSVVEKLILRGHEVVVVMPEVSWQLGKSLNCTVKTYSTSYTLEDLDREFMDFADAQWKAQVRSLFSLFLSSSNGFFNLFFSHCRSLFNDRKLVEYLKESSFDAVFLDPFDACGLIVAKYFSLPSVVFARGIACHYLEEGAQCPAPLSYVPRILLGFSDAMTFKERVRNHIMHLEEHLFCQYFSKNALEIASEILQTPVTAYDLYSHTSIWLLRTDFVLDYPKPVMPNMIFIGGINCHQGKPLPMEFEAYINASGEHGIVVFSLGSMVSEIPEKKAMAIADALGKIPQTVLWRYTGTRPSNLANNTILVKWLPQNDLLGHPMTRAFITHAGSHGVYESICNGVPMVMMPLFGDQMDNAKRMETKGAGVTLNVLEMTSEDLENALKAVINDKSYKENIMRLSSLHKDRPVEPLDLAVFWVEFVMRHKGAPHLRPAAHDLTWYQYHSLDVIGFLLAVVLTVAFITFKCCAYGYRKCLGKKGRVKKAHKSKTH

[4] = target: T3, UDP-glucuronosyltransferase 1A7 (Homo sapiens, UniProt Q9HAW7); assay: Drug metabolism assessed as human recombinant UGT1A7-mediated irilone-O-5-monoglucuronide formation at 25 uM incubated for 5 mins prior to UDPGA addition measured after 90 mins by HPLC-DAD analysis; type: ADME; details: recombinant enzyme, 1.5 h
T3 sequence (Q9HAW7 whole entry): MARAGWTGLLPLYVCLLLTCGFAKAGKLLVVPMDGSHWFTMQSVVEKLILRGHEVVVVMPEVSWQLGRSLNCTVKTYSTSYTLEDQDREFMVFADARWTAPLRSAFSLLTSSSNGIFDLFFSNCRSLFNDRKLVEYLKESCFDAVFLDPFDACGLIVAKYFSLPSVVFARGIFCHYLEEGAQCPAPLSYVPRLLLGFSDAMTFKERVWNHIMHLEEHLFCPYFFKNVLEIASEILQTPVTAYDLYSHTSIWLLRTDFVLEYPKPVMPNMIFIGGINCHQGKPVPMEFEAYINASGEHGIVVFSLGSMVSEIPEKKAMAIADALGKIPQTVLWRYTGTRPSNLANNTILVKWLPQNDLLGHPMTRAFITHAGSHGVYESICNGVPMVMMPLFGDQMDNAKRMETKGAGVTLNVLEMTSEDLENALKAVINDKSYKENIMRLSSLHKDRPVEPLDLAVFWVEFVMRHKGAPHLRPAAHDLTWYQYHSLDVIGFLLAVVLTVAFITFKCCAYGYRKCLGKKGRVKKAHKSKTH

[5] = target: T4, UDP-glucuronosyltransferase 1A10 (Homo sapiens, UniProt Q9HAW8); assay: Activity of human recombinant UGT1A10 assessed as intrinsic clearance incubated for 5 mins prior to UDPGA addition measured after 90 mins; type: ADME; details: recombinant enzyme, 1.5 h
T4 sequence (Q9HAW8 whole entry): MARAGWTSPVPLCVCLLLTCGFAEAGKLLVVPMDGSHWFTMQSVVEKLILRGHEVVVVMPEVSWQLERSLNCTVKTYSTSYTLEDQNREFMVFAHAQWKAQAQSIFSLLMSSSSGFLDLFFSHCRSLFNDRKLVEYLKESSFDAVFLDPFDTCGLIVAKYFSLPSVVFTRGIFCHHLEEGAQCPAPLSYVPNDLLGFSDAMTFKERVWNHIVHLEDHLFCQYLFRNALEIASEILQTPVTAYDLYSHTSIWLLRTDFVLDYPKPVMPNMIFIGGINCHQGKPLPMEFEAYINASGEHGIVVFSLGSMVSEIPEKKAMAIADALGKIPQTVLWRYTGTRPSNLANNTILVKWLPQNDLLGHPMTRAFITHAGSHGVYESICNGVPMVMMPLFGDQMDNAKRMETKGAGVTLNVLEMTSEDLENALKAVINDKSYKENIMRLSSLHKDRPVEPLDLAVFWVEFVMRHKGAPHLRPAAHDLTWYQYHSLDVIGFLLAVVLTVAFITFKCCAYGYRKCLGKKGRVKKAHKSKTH

Liver microsome = assay: Drug metabolism in Sprague-Dawley rat liver microsomes assessed as substrate inhibition of IRI-O-4'-monoglucuronide formation incubated for 5 mins prior to UDPGA addition measured after 90 mins by Eadie-Hoftsee plot analysis; type: ADME

- Ki [1]: 49.1 µM
- Drug metabolism [2]: metabolite_not_detected
- CL [3]: 20200 µL/min/mg
- Drug metabolism [4]: metabolite_detected
- CL [5]: 99900 µL/min/mg
- Ki (Liver microsome): 44.7 µM
Compound: O=c1c(-c2ccc(O)cc2)coc2cc3c(c(O)c12)OCO3
